Source: patent US12448366B2, “Solid forms of pralsetinib” (Rigel Pharmaceuticals, Inc., priority 2020, dated 2025)
Like-named read-outs stand apart in the source and are kept apart here.

What was measured:
[1] = test system: RET; settings: patients with RET-altered NSCLC and MTC; cited from earlier work
[2] = Salt screening: XRPD of wet cake, after drying under vacuum at 50° C., after exposure to 97% relative humidity; type: physicochemical; settings: XRPD; for stability of salt solid form to humidification: 97% (>95%) relative humidity; for stability of salt solid form to drying: vacuum at 50° C.
Procedure: Stock solutions of counter-ion were prepared in EtOH, MeOH, or EtOAc, depending on solubility. […] The solvent was allowed to evaporate at room temperature over the weekend and then placed at 50° C. under vacuum for 3 hours to remove any remaining solvent. Approximately 25 volumes solvent (0.6 mL) was added to each vial for screening. The three solvents selected were EtOH, EtOAc, and IPA:water (9:1 vol). […] XRPD analysis was done in three stages. XRPD of the wet cake was done for all samples. Unique solids were then left on XRPD plates and dried under vacuum at 50° C. XRPD of unique dry solids was then done. […] The humid environment was generated by placing a beaker of saturated potassium sulfate in water in a sealed container. All XRPD patterns were compared to counter ion XRPD patterns and known free base patterns. Where solids were not of sufficient quantity to isolate, the solvent was evaporated at room temperature, the material dried at 50° C. under active vacuum for 3 hours, and then reslurried at room temperature in either MtBE or IPAc overnight after heating to 45° C. for 30 minutes.

[3] = Qualitative water solubility of salts (salt screen); type: physicochemical
[4] = Humidity exposure, 75% relative humidity at 40° C. for one week, XRPD; type: physicochemical; settings: for stability on exposure to 75% relative humidity at 40° C.: one week / 7 days, XRPD
[5] = Dynamic vapor sorption (DVS); type: physicochemical; settings: for hygroscopicity (words): DVS; for XRPD / form stability after DVS humidity cycling: XRPD before and after DVS; for total mass change by DVS: between 2% and 95% relative humidity
Procedure: Dynamic Vapor Sorption (DVS) was done using a DVS Intrinsic 1. The sample is loaded into a sample pan and suspended from a microbalance. A typical sample mass for DVS measurement is 25 mg. Nitrogen gas bubbled through distilled water provides the desired relative humidity. A typical measurement comprises the steps: • 1—Equilibrate at 50% RH • 2—50% to 2%. (50%, 40%, 30%, 20%, 10% and 2%) • a. Hold minimum of 5 mins and maximum of 60 minutes at each humidity. The pass criteria is less than 0.002% change • 3—2% to 95% (2%, 10%, 20%, 30%, 40%, 50%, 60%, 70%, 80%, 90%, 95%) • a. Hold minimum of 5 mins and maximum of 60 minutes at each humidity. The pass criteria is less than 0.002% change • 4—95% to 2% (95%, 80%, 70%, 60%, 50%, 40%, 30%, 20%, 10%, 2%) • a. Hold minimum of 5 mins and maximum of 60 minutes at each humidity. The pass criteria is less than 0.002% change • 5—2% to 50% (2%, 10%, 20%, 30%, 40%, 50%) • a. Hold minimum of 5 mins and maximum of 60 minutes at each humidity. The pass criteria is less than 0.002% change High Pressure Liquid Chromatography (HPLC)
Dynamic Vapor Sorption (DVS) was performed using a DVS Intrinsic 1. The samples (12-31 mg) was loaded into a sample pan, suspended from a microbalance and exposed to a humidified stream of nitrogen gas. The sample was held for a minimum of 5 min at each level and only progressed to the next humidity level if there was <0.002% change in weight between measurements (interval: 60 seconds) or 240 min had elapsed. The following program was used: • 1—Equilibration at 50% RH • 2—50% to 2%. (50%, 40%, 30%, 20%, 10% and 2%) • 3—2% to 95% (2%, 10%, 20%, 30%, 40%, 50%, 60%, 70%, 80%, 90%, 95%) • 4—95% to 2% (95%, 80%, 70%, 60%, 50%, 40%, 30%, 20%, 10%, 2%) • 5—2% to 50% (2%, 10%, 20%, 30%, 40%, 50%) High Performance Liquid Chromatography (HPLC)

[6] = Competitive slurry experiments between free base solid forms; type: physicochemical; settings: for competitive slurry in methanol:water: high ratios of water to methanol and lower temperatures
[7] = Thermal treatment in DSC followed by XRPD (Example 2G); type: physicochemical
Description: Select solids were used for thermal treatment in DSC. Solids were heated to specified temperature and then cooled back to room temperature for analysis by XRPD.

[8] = Solubility in water and simulated fluids (fasted/fed state simulated intestinal fluid, fasted state simulated gastric fluid); type: physicochemical

## CO[C@]1(C(=O)N[C@@H](C)c2ccc(-n3cc(F)cn3)nc2)CC[C@H](c2nc(C)cc(Nc3cc(C)[nH]n3)n2)CC1 [Compound (I), (cis)-N-((S)-1-(6-(4-fluoro-1H-pyrazol-1-yl)pyridin-3-yl)ethyl)-1-methoxy-4-(4 methyl-6-(5-methyl-1H-pyrazol-3-ylamino)pyrimidin-2-yl)cyclohexanecarboxamide]
[1]
  RET signaling: attenuated
  clinical responses: durable clinical responses
  off target toxicity: without notable off target toxicity

## CO[C@]1(C(=O)N[C@@H](C)c2ccc(-n3cc(F)cn3)nc2)CC[C@H](c2nc(C)cc(Nc3cc(C)[nH]n3)n2)CC1 [Solid Form 10-A, pralsetinib]
[2]; listed as 10-A
  stability of salt solid form to humidification: stable
  stability of salt solid form to drying: stable
[3]; listed as salicylate 10-A
  qualitative water solubility: low solubility

## CO[C@]1(C(=O)N[C@@H](C)c2ccc(-n3cc(F)cn3)nc2)CC[C@H](c2nc(C)cc(Nc3cc(C)[nH]n3)n2)CC1 [Solid Form 12-A, pralsetinib]
[2]; listed as Pattern 12-A
  stability of salt solid form to humidification: stable
  stability of salt solid form to drying: stable
[3]
  qualitative water solubility: low

## CO[C@]1(C(=O)N[C@@H](C)c2ccc(-n3cc(F)cn3)nc2)CC[C@H](c2nc(C)cc(Nc3cc(C)[nH]n3)n2)CC1 [Solid Form A, pralsetinib]
[4]
  conversion to hydrate Solid Form C on prolonged / high humidity exposure: did not convert to Solid Form C
  stability on exposure to 75% relative humidity at 40° C.: stable
[4]; listed as Pattern A
  stability on exposure to 75% relative humidity at 40° C.: remained unchanged
[5]
  reversibility of the DVS mass change: reversible
  share of the DVS mass change occurring above 70% relative humidity: 80%
  share of the DVS mass change occurring above 80% relative humidity: 70%
  hygroscopicity (words): hygroscopic
  XRPD / form stability after DVS humidity cycling: stable
  total mass change by DVS: 10.2 wt. %
[5]; listed as solid form A
  hygroscopicity (words): hygroscopic
  XRPD / form stability after DVS humidity cycling: Pattern A
[5]; Table 3E, listed as Pattern A
  DVS Water Mass Change (wt. %): 10.2 wt. %
[5]; between 2-95% relative humidity
  reversible mass change by DVS: about 10%
[5]; between 2 and 95% relative humidity at 25° C.
  water mass gained by dynamic vapor sorption: 10%
[5]; between 15 to 75% relative humidity
  water pick-up: about 2%
[6]
  competitive slurry in methanol:water: converted to Solid Form C
[6]; listed as Pattern A
  competitive slurry in methanol:water: converted to a praletinib free base material characterized by XRPD Pattern C
  Competitive slurry MeOH: water (1:1 vol) at 23 and 50° C.: A converts to C
  Competitive slurry isopropanol, MeOH:MtBE: A stable
[7]
  solid form after a hold at the melting point: did not convert to material with XRPD Pattern H
[8]
  solubility in simulated gastric fluid: high solubility
  solubility in simulated intestinal fluid: low solubility
  solubility in water: low solubility

## CO[C@]1(C(=O)N[C@@H](C)c2ccc(-n3cc(F)cn3)nc2)CC[C@H](c2nc(C)cc(Nc3cc(C)[nH]n3)n2)CC1 [Solid Form B, pralsetinib]
[4]; listed as Pattern B
  conversion to hydrate Solid Form C on prolonged / high humidity exposure: not observed to convert back to hydrate XRPD Pattern C
  stability on exposure to 75% relative humidity at 40° C.: remained unchanged
[5]
  total mass change by DVS: 1.4 wt. %
[7]; 190° C.
  solid form after heating to 190° C.: converted to solid form A

## CO[C@]1(C(=O)N[C@@H](C)c2ccc(-n3cc(F)cn3)nc2)CC[C@H](c2nc(C)cc(Nc3cc(C)[nH]n3)n2)CC1 [Solid Form F, pralsetinib]
[7]; 140° C.
  solid form after heating to 140° C.: converted to solid form B
